# Reference: the supplement of paper PMC11208160
# Assay: recombinant UMI read abundance after kanamycin selection (control-corrected) (log10(CPM+1)); higher = more efficient recombination; extreme values may be limits of the assay; sequences stand for … in AGTGCAGAGAAAATCGGCCAGTTTTCTCTGCCTGCAGTCCGCATGCCGTGGGACCCCTTGGGTTCTAACCTGTTGCCTAGATTTATGCAGCGGACTGCCTTTCTCCCAAAGTGATAAACCGG…AGGTTGGTTTCACT; site = the 11-nt donor
# Method in brief: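 Sequencing read counts were converted to CPM, averaged over two replicates and scaled by control-derived factors. Results are given as log10(CPM+1). The reads covered the donor–target junction of recombinant UMIs from a pooled Escherichia coli screen of donor and donor-binding-loop pairs for the IS621 bridge recombinase.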
# 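Note: IS621 bridge recombinase in Escherichia coli cells against a fixed T5 target plasmid.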
row,Sequence,recombinant UMI read abundance (log10)
1,TTATCATCATGGACCGGTTTTCCCGGTAATCCGTATTTGCT (site TTATCATCTAG),1.98
2,TTATGAGCATGGACCGGTTTTCCCGGTAATCCGTATTTGGG (site TAATGAGCTCC),0.0152
3,TTATGAGCATGGACCGGTTTTCCCGGTAATCCGTATTTGGG (site TCATGAGCTCC),0.0145
4,TTATGAGCATGGACCGGTTTTCCCGGTAATCCGTATTTGGG (site TGATGAGCTCC),0.0171
5,TTATGAGCATGGACCGGTTTTCCCGGTAATCCGTATTTGGG (site TTATGAGCTCC),0.0057
6,TTATGCGCATGGACCGGTTTTCCCGGTAATCCGTATTTGCC (site TTATGCGCTGG),1.93
7,TTATTACCATGGACCGGTTTTCCCGGTAATCCGTATTTGGG (site TTATTACCTCC),0.0164
8,TTATTTACATGGACCGGTTTTCCCGGTAATCCGTATTTGAA (site TTATTTACTTT),0.00385
9,TTCAACCCATGGACCGGTTTTCCCGGTAATCCGTATTTGGA (site TTCAACCCTTC),0
10,TTCAACTCATGGACCGGTTTTCCCGGTAATCCGTATTTGTC (site TTCAACTCTGA),0.222
11,TTCAATTCATGGACCGGTTTTCCCGGTAATCCGTATTTGCC (site TACAATTCTGG),0
12,TTCAATTCATGGACCGGTTTTCCCGGTAATCCGTATTTGCC (site TCCAATTCTGG),0
13,TTCAATTCATGGACCGGTTTTCCCGGTAATCCGTATTTGCC (site TGCAATTCTGG),0
14,TTCAATTCATGGACCGGTTTTCCCGGTAATCCGTATTTGCC (site TTCAATTCTGG),0
15,TTCACGCCATGGACCGGTTTTCCCGGTAATCCGTATTTGAC (site TTCACGCCTGT),0
16,TTCACTTCATGGACCGGTTTTCCCGGTAATCCGTATTTGTG (site TTCACTTCTCA),0.00654
17,TTCAGCTCATGGACCGGTTTTCCCGGTAATCCGTATTTGTT (site TTCAGCTCTAA),0.00312
18,TTCATGACATGGACCGGTTTTCCCGGTAATCCGTATTTGCG (site TTCATGACTCG),0
19,TTCCCGCCATGGACCGGTTTTCCCGGTAATCCGTATTTGCT (site TTCCCGCCTAG),0.552

row,Sequence,recombinant UMI read abundance (log10)
1,TTCCTCACATGGACCGGTTTTCCCGGTAATCCGTATTTGCT (site TTCCTCACTAG),0.293
2,TTCGAGACATGGACCGGTTTTCCCGGTAATCCGTATTTGCA (site TTCGAGACTTG),0.725
3,TTCGCCTCATGGACCGGTTTTCCCGGTAATCCGTATTTGAT (site TTCGCCTCTAT),0.521
4,TTCGCGACATGGACCGGTTTTCCCGGTAATCCGTATTTGAA (site TTCGCGACTTT),0.0402
5,TTCGCTTCATGGACCGGTTTTCCCGGTAATCCGTATTTGTG (site TTCGCTTCTCA),0
6,TTCGGCACATGGACCGGTTTTCCCGGTAATCCGTATTTGAG (site TTCGGCACTCT),0.00333
7,TTCGGGGCATGGACCGGTTTTCCCGGTAATCCGTATTTGTC (site TTCGGGGCTGA),0
8,TTCGTCCCATGGACCGGTTTTCCCGGTAATCCGTATTTGTC (site TTCGTCCCTGA),0
9,TTCTACACATGGACCGGTTTTCCCGGTAATCCGTATTTGCT (site ATCTACACTAG),0.34
10,TTCTACACATGGACCGGTTTTCCCGGTAATCCGTATTTGCT (site CTCTACACTAG),1.12
11,TTCTACACATGGACCGGTTTTCCCGGTAATCCGTATTTGCT (site GTCTACACTAG),0.569
12,TTCTACACATGGACCGGTTTTCCCGGTAATCCGTATTTGCT (site TTCTACACTAG),1.16
13,TTCTAGGCATGGACCGGTTTTCCCGGTAATCCGTATTTGGT (site TACTAGGCTAC),0.00535
14,TTCTAGGCATGGACCGGTTTTCCCGGTAATCCGTATTTGGT (site TCCTAGGCTAC),0.0191
15,TTCTAGGCATGGACCGGTTTTCCCGGTAATCCGTATTTGGT (site TGCTAGGCTAC),0.0112
16,TTCTAGGCATGGACCGGTTTTCCCGGTAATCCGTATTTGGT (site TTCTAGGCTAC),0.0102
17,TTCTAGTCATGGACCGGTTTTCCCGGTAATCCGTATTTGAC (site TTCTAGTCTGT),0
18,TTCTCCGCATGGACCGGTTTTCCCGGTAATCCGTATTTGAA (site TTCTCCGCTTT),0.0825
19,TTCTCCTCATGGACCGGTTTTCCCGGTAATCCGTATTTGTT (site TTCTCCTCTAA),0.151
